This note sets out measurements from patent publication US20150344466A1 (SUMITOMO CHEMICAL COMPANY, LIMITED, priority 2013, published 2015).

Assay type in all cases: in vivo
The subject of experiment [1] is Blattella germanica. The experiment is described as follows: Knockdown spray test on Blattella germanica, 2.0% w/v oil formulation (Test Example 1). The note with it: topical, 0.25 h, active ingredient 2.0% w/v, 1.5 ml sprayed, within 15 minutes, read-out: knockdown rate of the test insects within 15 minutes. As to the method: Ten Blattella germanica (5 males and 5 females) were released in a test container (8.75 cm in diameter, 7.5 cm in height, and the bottom made of 16 mesh metallic wire) with the inner wall on which butter was applied, and the container was placed on the bottom of a test chamber (bottom: 46 cm×46 cm, height: 70 cm). From a height of 60 cm above the upper surface of the container, 1.5 ml of the test drug solution was sprayed using a spray gun (a spraying pressure of 0.42 kg/cm^2). Thirty seconds after spraying, the container was taken out from the test chamber, and after 2 minutes, 5 minutes and 15 minutes, the number of knocked-down insects was counted to obtain a knockdown rate. The knockdown rate was calculated by the following equation.
(§1) Knockdown Rate (%)=(Number of Knocked-down Insects/Number of Tested Insects)×100

Another experiment concerns Culex pipiens pallens. The experiment is described as follows: Knockdown spray test on adult Culex pipiens pallens (Test Example 4). The note with it: topical, 0.25 h, active ingredient 0.1% w/v, 0.5 ml sprayed, within 15 minutes, read-out: knockdown rate of the test insects within 15 minutes. The method, boiled down:
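Ten adult mosquitoes in a gauze-covered cup inside a 46×46×70 cm chamber were sprayed with 0.5 ml of test solution from 30 cm at 0.4 kg/cm^2. The cup was removed at once, and knocked-down insects were counted at 2, 5 and 15 min; knockdown rate (%) = knocked-down/tested ×100.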

Experiment [2] deals with Musca domestica. The experiment is described as follows: Knockdown spray test on adult Musca domestica (Test Example 3). Conditions: topical, 0.25 h, active ingredient 2.0% w/v, 0.5 ml sprayed, within 15 minutes, read-out: knockdown rate of the test insects within 15 minutes. As to the method: Ten adult Musca domestica (five males and five females) were released in a polyethylene cup (bottom diameter: 10.6 cm), and the cup was covered with a 16-mesh nylon gauze. The polyethylene cup was placed on the bottom of a test chamber (bottom: 46 cm×46 cm, height: 70 cm). From a height of 30 cm above the upper surface of the polyethylene cup, 0.5 ml of the test drug solution was sprayed using a spray gun (a spraying pressure of 0.9 kg/cm^2). Immediately after spraying, the cup was taken out from the test chamber, and after 2 minutes, 5 minutes and 15 minutes, the number of knocked-down insects was counted to obtain a knockdown rate. The knockdown rate was calculated by the following equation.
as §1

In a further experiment the test system is Plutella xylostella. The experiment is described as follows: Foliar spray test on Plutella xylostella on cabbage (Test Example 10). The note with it: 120 h, third instar larvae of Plutella xylostella on cabbage, 500 ppm spray 20 ml/cup, after five days, read-out: controlling value. As to the method: On the other hand, cabbage was planted in a polyethylene cup, and grown until the third-fourth true leaf was spread. The test spray solution was sprayed to the cabbage at a ratio of 20 ml/cup. After the drug solution sprayed on the cabbage was dried, 10 third instar larvae of Plutella xylostella were allowed to parasitize the cabbage. After five days, the number of Plutella xylostella was investigated, and the controlling value was calculated according to the following standard. Controlling value (%)={1−(Cb×Tai)/(Cai×Tb)}×100 In the equation, the symbols represent as follows. Cb: the number of insects in a non-treated section before treatment Cai: the number of insects in a non-treated section on observation Tb: the number of insects in a treated section before treatment Tai: the number of insects in a treated section on observation

For experiment [3], the system named is Blattella germanica. The experiment is described as follows: Knockdown spray test on Blattella germanica, 0.1% w/v oil formulation (Test Example 2). The note with it: topical, 0.25 h, active ingredient 0.1% w/v, 1.5 ml sprayed, within 15 minutes, read-out: knockdown rate of the test insects within 15 minutes. The method, boiled down:
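Ten German cockroaches (5 males, 5 females) in a mesh-bottomed, butter-walled container were sprayed with 1.5 ml test solution from 60 cm at 0.42 kg/cm^2 inside a chamber.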

Experiment [4] relates to Musca domestica. The experiment in a line: Filter paper/sucrose bait death rate test on Musca domestica (Test Example 5). Conditions: female imagoes of Musca domestica, 0.7 ml on filter paper, after 24 hours. As to the method:
A filter paper having a diameter of 5.5 cm was spread on the bottom of a polyethylene cup having the same diameter and 0.7 ml of the test drug solution was added dropwise onto the filter paper, and 30 mg of sucrose was uniformly placed as bait.
Into the polyethylene cup, 10 female imagoes of Musca domestica were released, and the cup was sealed with a lid. After 24 hours, the life and death of Musca domestica was examined, and the death rate was calculated. The death rate was calculated by the following equation.
Death rate (%)=(Number of dead insects/Number of tested insects)×100

Structures are written as SMILES.

On to `CCCCc1cc(C(=O)NCC2CCOC2)no1` (centres unmarked) [(11), N-(tetrahydrofuran-3-ylmethyl)-5-butylisoxazole-3-carboxamide], for which the pest or weed control at 2 % strength in the experiment with Blattella germanica [1] and with Musca domestica [2] was ≥ 80% throughout. The pest or weed control at 0.1 % strength in the experiment with Culex pipiens pallens is ≥ 80%.

Regarding `O=C(NCC1CCCCO1)c1cc(COCc2ccccc2)on1` (centres unmarked) [(14), N-(tetrahydropyran-2-ylmethyl)-5-benzyloxymethylisoxazole-3-carboxamide], the pest or weed control at 2 % strength in the experiment with Blattella germanica [1] and with Musca domestica [2] was ≥ 80% throughout. Further, the pest or weed control at 0.1 % strength with Culex pipiens pallens is ≥ 80%.

Turning to `O=C(NCC1CCOC1)c1cc(COc2ccccc2)on1` (centres unmarked) [(23), N-(tetrahydrofuran-3-ylmethyl)-5-phenyloxymethylisoxazole-3-carboxamide], in the experiment with Blattella germanica [1], the pest or weed control at 2 % strength is ≥ 80%. Further, the pest or weed control at 500 ppm with Plutella xylostella is ≥ 90%. Further, the pest or weed control at 0.1 % strength in the experiment on Culex pipiens pallens was ≥ 80%.

As to `O=C(NCC1CCOC1)c1cc(COCc2cccc3ccccc23)on1` (centres unmarked) [(27), N-(tetrahydrofuran-3-ylmethyl)-5-(1-naphthylmethoxymethyl)isoxazole-3-carboxamide], the pest or weed control at 2 % strength in the experiment on Blattella germanica [1] and in the experiment on Musca domestica [2] was ≥ 80% each time. Besides, the pest or weed control at 0.1 % strength in the experiment with Culex pipiens pallens was ≥ 80%.

With `O=C(NCC1CCOC1)c1cc(COCc2cccc(C(F)(F)F)c2)on1` (centres unmarked) [(64), N-(tetrahydrofuran-3-ylmethyl)-5-(3-trifluoromethylbenzyloxymethyl)isoxazole-3-carboxamide], the pest or weed control at 2 % strength in the experiment with Blattella germanica [1] and in the experiment on Musca domestica [2] was ≥ 80% in each case. Further, the pest or weed control at 0.1 % strength in the experiment on Culex pipiens pallens is ≥ 80%.

For the compound `O=C(NCC1CCOC1)c1cc(COCc2cccc(-c3ccccc3)c2)on1` (centres unmarked) [(113), N1-(tetrahydrofuran-3-ylmethyl)-5-(3-phenylbenzyloxymethyl)isoxazole-3-carboxamide], the pest or weed control at 2 % strength in the experiment with Blattella germanica [1] and in the experiment with Musca domestica [2] was ≥ 80% each time. Moreover, the pest or weed control at 0.1 % strength in the experiment on Culex pipiens pallens was ≥ 80%.

As to `O=C(NCC1CCOC1)c1cc(COCC2COc3ccccc3O2)on1` (centres unmarked) [(120), N-(tetrahydrofuran-3-ylmethyl)-5-(1,4-benzodioxan-2-ylmethoxymethyl)isoxazole-3-carboxamide], the pest or weed control at 0.1 % strength in the experiment on Culex pipiens pallens and in the experiment with Blattella germanica [3] was ≥ 80% each time. Further, the pest or weed control at 2 % strength in the experiment with Musca domestica [2] was ≥ 80%.

Take `O=C(NCC1CCOC1)c1cc(COCCC2CCCC2)on1` (centres unmarked) [(132), N-(tetrahydrofuran-3-ylmethyl)-5-(2-cyclopentylethyl)oxymethylisoxazole-3-carboxamide]: in the experiment on Musca domestica [4], the pest or weed control at 500 ppm was ≥ 90%. Besides, the pest or weed control at 0.1 % strength with Culex pipiens pallens and in the experiment with Blattella germanica [3] was ≥ 80% each time. Further, the pest or weed control at 2 % strength with Musca domestica [2] is ≥ 80%.

As to `O=C(NCC1CCOC1)c1cc(CCCOCc2ccccc2)on1` (centres unmarked) [(139), N-(tetrahydrofuran-3-ylmethyl)-5-(3-benzyloxypropyl)isoxazole-3-carboxamide], the pest or weed control at 2 % strength in the experiment on Blattella germanica [1] and in the experiment with Musca domestica [2] was ≥ 80% in each case. Moreover, in the experiment on Culex pipiens pallens, the pest or weed control at 0.1 % strength is ≥ 80%.

Consider `O=C(NCC1CCOC1)c1cc(CCCCOCc2ccccc2)on1` (centres unmarked) [(140), N-(tetrahydrofuran-3-ylmethyl)-5-(4-benzyloxybutyl)isoxazole-3-carboxamide], for which the pest or weed control at 2 % strength with Blattella germanica [1] and with Musca domestica [2] was ≥ 80% in each case. In addition, in the experiment with Culex pipiens pallens, the pest or weed control at 0.1 % strength was ≥ 80%.

Take `O=C(NCC1CCOC1)c1cc(CCCCCOCc2ccccc2)on1` (centres unmarked) [(141), N-(tetrahydrofuran-3-ylmethyl)-5-(5-benzyloxypentyl)isoxazole-3-carboxamide]: the pest or weed control at 2 % strength in the experiment with Blattella germanica [1] and in the experiment with Musca domestica [2] was ≥ 80% each time. In the experiment on Culex pipiens pallens, the pest or weed control at 0.1 % strength was ≥ 80%.

`O=C(NCC1CCOC1)c1cc(Cc2ccc3ccccc3c2)on1` (centres unmarked) [(159), N-(tetrahydrofuran-3-ylmethyl)-5-(naphthalen-2-ylmethyl)isoxazole-3-carboxamide]: the pest or weed control at 0.1 % strength in the experiment with Culex pipiens pallens was ≥ 80%. Besides, in the experiment with Musca domestica [2], the pest or weed control at 2 % strength was ≥ 80%.

With `O=C(NCC1CCOC1)c1cc(Cc2cccc3ccccc23)on1` (centres unmarked) [(160), N-(tetrahydrofuran-3-ylmethyl)-5-(naphthalen-1-ylmethyl)isoxazole-3-carboxamide], the pest or weed control at 0.1 % strength in the experiment with Culex pipiens pallens is ≥ 80%. In addition, the pest or weed control at 2 % strength in the experiment with Musca domestica [2] is ≥ 80%.

With `Cc1c(C(=O)NCC2CCOC2)noc1COCc1ccccc1` (centres unmarked) [(169), N-(tetrahydrofuran-3-ylmethyl)-(5-benzyloxymethyl-4-methyl) isoxazole-3-carboxamide], the pest or weed control at 0.1 % strength in the experiment with Culex pipiens pallens and in the experiment on Blattella germanica [3] was ≥ 80% throughout. Moreover, the pest or weed control at 2 % strength in the experiment on Musca domestica [2] is ≥ 80%.

As to `O=C(NCC1CCOC1)c1cc(COc2ccccc2Cl)on1` (centres unmarked) [(176), N-(tetrahydrofuran-3-ylmethyl)-5-(2-chlorophenoxymethyl)isoxazole-3-carboxamide], the pest or weed control at 500 ppm in the experiment on Musca domestica [4] was ≥ 90%. Besides, the pest or weed control at 0.1 % strength in the experiment with Culex pipiens pallens and in the experiment on Blattella germanica [3] was ≥ 80% throughout. Moreover, in the experiment on Musca domestica [2], the pest or weed control at 2 % strength is ≥ 80%.

As for `Cc1c(C(=O)NCC2CCOC2)noc1COCc1ccc2ccccc2c1` (centres unmarked) [(213), N-(tetrahydrofuran-3-ylmethyl)-4-methyl-5-(2-naphthylmethoxymethyl)isoxazole-3-carboxamide], the pest or weed control at 0.1 % strength in the experiment on Culex pipiens pallens and in the experiment on Blattella germanica [3] was ≥ 80% each time. The pest or weed control at 2 % strength with Musca domestica [2] is ≥ 80%.

Regarding `O=C(NCC1CCOCC1)c1cc(CCCc2ccccc2)on1` [(235), N-(tetrahydropyran-4-ylmethyl)-5-(3-phenylpropyl)isoxazole-3-carboxamide], the pest or weed control at 0.1 % strength in the experiment with Culex pipiens pallens and with Blattella germanica [3] was ≥ 80% each time. In the experiment with Musca domestica [2], the pest or weed control at 2 % strength was ≥ 80%.

`O=C(NCC1CCOC1)c1cc(COC/C=C/c2ccccc2)on1` (centres unmarked) [(242), N-(tetrahydrofuran-3-ylmethyl)-5-(3-phenyl-(E)-2-propenyloxymethyl)isoxazole-3-carboxamide]: in the experiment on Culex pipiens pallens, the pest or weed control at 0.1 % strength is ≥ 80%. Also, the pest or weed control at 2 % strength in the experiment on Musca domestica [2] was ≥ 80%.

For the compound `O=C(NCC1CCOC1)c1cc(COCc2ccccc2F)on1` (centres unmarked) [(264), N-(tetrahydrofuran-3-ylmethyl)-5-(2-fluorobenzyloxymethyl)isoxazole-3-carboxamide], the pest or weed control at 500 ppm in the experiment on Musca domestica [4] is ≥ 90%. For the same compound, the pest or weed control at 0.1 % strength in the experiment on Culex pipiens pallens and in the experiment on Blattella germanica [3] was ≥ 80% in each case. In addition, the pest or weed control at 2 % strength in the experiment with Musca domestica [2] was ≥ 80%.

For the compound `Cc1c(C(=O)NCC2CCOC2)noc1Cc1cccc(F)c1` (centres unmarked) [(294), N-(tetrahydrofuran-3-ylmethyl)-4-methyl-5-(3-fluorobezyl)isoxazole-3-carboxamide], the pest or weed control at 500 ppm in the experiment on Musca domestica [4] and with Plutella xylostella was ≥ 90% throughout. Further, the pest or weed control at 0.1 % strength in the experiment on Culex pipiens pallens and with Blattella germanica [3] was ≥ 80% each time.

With `O=C(NCC1CCOC1)c1cc(Cc2cccc(OC(F)(F)F)c2)on1` (centres unmarked) [(313), N-(tetrahydrofuran-3-ylmethyl)-5-(3-trifluoromethoxybenzyl) isoxazole-3-carboxamide], the pest or weed control at 500 ppm in the experiment on Musca domestica [4] and in the experiment on Plutella xylostella was ≥ 90% each time. In addition, the pest or weed control at 0.1 % strength in the experiment on Culex pipiens pallens and in the experiment on Blattella germanica [3] was ≥ 80% each time.
